Measurements from patent US7455861B2, “Angelicae sinensis extracts useful for treatment of cancers” (priority 2004, dated 2008).
Converted amounts (≈) assume the structure as drawn.

Assays:
HDF = assay: Cytotoxicity (IC50) on HDF; assay type: cell-based, human; conditions: normal cells; for Cytotoxicity, IC50 HDF: Table 1; for IC50: Table 1, value in parentheses
From the text: (§1) Human umbilical vascular endothelial cells (HUVECs) were purchased from Cascade Biologics, Inc. (USA). HUVECs were maintained in Medium 200 (Cascade Biologics, Inc. USA) supplemented with 10% fetal bovine serum (FBS; Gibco BRL) and low serum growth supplement (LSGS; Cascade Biologics, Inc. USA). Human dermal fibroblasts (HDFs) were purchased from Cascade Biologics, Inc. (USA). HDFs were maintained in Medium 106 (Cascade Biologics, Inc. USA) supplemented with 10% FBS and low serum growth supplement (LSGS; Cascade Biologics, Inc. USA). The human colon adenocarcinoma cell lines HT-29 were purchased from the ATCC (Manassas, Va. USA). HT-29 were maintained in Dubecco's Modified Eagle Medium (DMEM; Gibco) supplemented with 10% FBS and 100 ng/ml penicillin and […] streptomycin (Life Technologies, Inc., Grand Island, N.Y., USA). For the proliferation assay of cell in log growth (G1), the cells were harvested at 60-80% of confluence. 100 μl of cell suspensions were dispensed onto a Falcon 96-well plates The densities were 6×10^3 cells/well in Medium 200 (for HUVECs), and 9×10^3 cells/well in Medium 106 (for HDFs), and 5×10^3 cells/well in DMEM (for HT-29) supplemented with 10% FBS. The cells were pre-incubated for 24 hours in an incubator (Humidified atmosphere, e.g., at 37° C., 5% CO2). 10 μl of toxicant of various concentrations were added into the culture medium of the plate. The cell cultures were incubated for 48 hours. 10 μl of the Cell Counting Kit-8 (CCK-8; DOJINDO) solution were added and the cell cultures incubated for 1˜4 hours in the incubator. The absorbance was measured at 450 nm, using a microplate reader with a reference wavelength at 600 nm or over.
(§2) Human tumor cell lines (MCF-7, CL1-5, HT-29, Caco-2), human umbilical vascular endothelial cells (HUVEC), and human dermal fibroblasts (HDF) were tested for sensitivity on Angelicae sinensis extracts, ligustilide, n-butylidenephthalide and its derivatives in vitro. The DBTRG-05MG, BCM, HL-60 and J5 cells were grown in RPMI-1640 medium containing 10% fetal calf serum and 100 ng/ml penicillin and […] streptomycin at 37° C. in a humidified atmosphere with 5% CO2. The G5T/VGH, RG2, Ni 8, SVEC and Balb/3T3 cells were cultured in DMEM with 10% fetal calf serum and 100 ng/ml penicillin and […] streptomycin at 37° C. in 5% CO2. Mycoplasma infection of the culture cells was excluded by PCR screening methods before each experiment.
(§3) The effects on cell viability after the treatments with different concentrations of the Angelicae sinensis extracts or the active components purified therefrom were evaluated by modified MTT assay in triplicate. Briefly, the cells (5×10^3) were incubated into 96-well plates containing 100 μl of a growth medium. The cells were permitted to adhere for 24 hours, then treated with 100 μl of the herbal extracts or the active components dissolved in the medium. The control contained DMSO of <0.02% (v/v). After 24, 48 and 72 h incubation, the drug-containing medium was replaced by 50 μl of fresh medium, and cells in each well were incubated in 50 μl of 400 μg/ml MTT for 6-8 h. The medium and MTT were removed later and 100 μl of DMSO was added to each well and to the control, to dissolve the soluble components. Absorbance at 550 nm of the solutions was measured with MRX Microtiter Plate Luminometer (DYNEX, USA). The absorbance of untreated cells was considered as 100%. […]

RG2 = assay: Cytotoxicity (IC50) on RG2; assay type: cell-based, rat; conditions: for IC50: Table 1, value in parentheses; for Cytotoxicity, IC50 RG2: cancer cells, Table 1
Method: as §2
(§4) The effects on cell viability after the treatments with different concentrations of the Angelicae sinensis extracts or the active components purified therefrom were evaluated by modified MTT assay in triplicate. Briefly, the cells (5×10^3) were incubated into 96-well plates containing 100 μl of a growth medium. The cells were permitted to adhere for 24 hours, then treated with 100 μl of the herbal extracts or the active components dissolved in the medium. The control contained DMSO of <0.02% (v/v). After 24, 48 and 72 h incubation, the drug-containing medium was replaced by 50 μl of fresh medium, and cells in each well were incubated in 50 μl of 400 μg/ml MTT for 6-8 h. The medium and MTT were removed later and 100 μl of DMSO was added to each well and to the control, to dissolve the soluble components. Absorbance at 550 nm of the solutions was measured with MRX Microtiter Plate Luminometer (DYNEX, USA). The absorbance of untreated cells was considered as 100%. To evaluate the effects of the extracts or the active components on cell growth rate of GBM cells, 5×10^3 exponentially growing cells were treated with different concentrations for 24, 48, or 72 h. The cytotoxicity of each test substance was determined as an IC50 value, which represents the drug concentration required to cause 50% inhibition. All experiments in this study were performed in triplicate.

ETS-1 = assay: RT-PCR of ETS-1 in HUVEC; assay type: cell-based, human
HUVEC [1] = assay: Cytotoxicity (IC50) on HUVEC; assay type: cell-based, human; conditions: normal cells; for Cytotoxicity, IC50 HUVEC: Table 1; for IC50: Table 1, value in parentheses
From the text: as §1, §2, §4

HUVEC [2] = assay: Tube formation of HUVEC; assay type: cell-based, human
MMP-2 = assay: RT-PCR of MMP-2 in HUVEC; assay type: cell-based, human
brain tumor cell lines = assay: Cytotoxicity (IC50) on brain tumor cell lines, pooled statement; assay type: cell-based; conditions: GBM tumors not sensitive
Method: as §4

G5T/VGH = assay: Cytotoxicity (IC50) on G5T/VGH; assay type: cell-based; conditions: Homo sapiens; Table 2
Method: as §2
as §3, with “After 24, 48 and 72 h incubation, the drug-containing medium was replaced by 50 μl of fresh medium, and cells in each well were incubated in 50 μl of 400 μg/ml MTT for 6-8 h. The medium and MTT were removed later and 100 μl of DMSO was added to each well and to the control, to dissolve the soluble components.” left out

DBTRG-05MG = assay: Cytotoxicity (IC50) on DBTRG-05MG; assay type: cell-based; conditions: Homo sapiens, read-out: Cytotoxicity (IC50) DBTRG-05MG
Method: as §2
as §4, with “All experiments in this study were performed in triplicate.” left out

[3] = Cytotoxicity (IC50) on HUVEC; assay type: cell-based, human; conditions: human
From the text: as §1, §2, §4

SMILES	Cytotoxicity, IC50 HDF (HDF)	IC50 (HDF)	IC50 (RG2)	Cytotoxicity, IC50 RG2 (RG2)	Inhibition RT-PCR ETS-1 (ETS-1)	Cytotoxicity, IC50 HUVEC (HUVEC [1])	IC50 (HUVEC [1])	Inhibition Tube Formation (HUVEC [2])	Inhibition RT-PCR MMP-2 (MMP-2)	IC50 GBM tumors (brain tumor cell lines)	IC50 (G5T/VGH)	IC50 (DBTRG-05MG)	IC50 [3]
CCC/C=C1/OC(=O)c2ccccc21 [BP-E form]	>100 µg/mL	> 532 µM	> 106 µM	>20 µg/mL	159.4 µg/mL	>100 µg/mL	> 532 µM						
CCC/C=C1\OC(=O)c2ccccc21 [BP-Z form]	65.25 µg/mL	347 µM	> 106 µM	>20 µg/mL	159.4 µg/mL	>100 µg/mL	> 532 µM	159.4 µg/mL	531.3 µg/mL				
O=NN(CCCl)C(=O)NCCCl [carmustin, reference compound]										> 100 µg/mL			
CC(=O)O[C@H]1C(=O)[C@@]2(C)[C@H]([C@H](OC(=O)c3ccccc3)[C@]3(O)C[C@H](OC(=O)[C@H](O)[C@@H](NC(=O)c4ccccc4)c4ccccc4)C(C)=C1C3(C)C)[C@]1(OC(C)=O)CO[C@@H]1C[C@@H]2O [Taxol, reference compound]											< 0.1 µg/mL	61 ± 3.3 µg/mL (≈ 71.4 µM)	< 0.1 µg/mL
